Assay results from a melting point compilation (Tetko et al.).

SMILES | melting point
CCc1n[nH]c(N)c1Br | 117 to 119 °C
Nc1cccnc1-n1cncn1 | 110 to 112 °C
O=C(O)c1cc(Cl)ncc1[N+](=O)[O-] | 178 to 180 °C
CCc1cc(O)ncn1 | 135 to 137 °C
Nc1ccc(NC(=O)c2cccs2)cc1 | 166 to 168 °C
Cc1nc(N(C)C)sc1C(=O)O | 99 to 101 °C
COC(=O)C(=O)CC(=O)c1ccccc1Br | 61 to 63 °C
O=C(O)C1CC(=O)N(C2CCCC2)C1 (centres undefined) | 136 to 138 °C
Clc1nc(C=Cc2ccc(Br)cc2)nc2sc3c(c12)CCCC3 | 168 to 170 °C
Cc1c(C(=O)O)sc2nccn12 | 241 to 243 °C
COc1cc(C=O)ccc1OCC(=O)O | 184 to 186 °C
CN1CN=C(S)NC1 | 173 to 177 °C
Cc1c(C(=O)O)oc2cc3c(cc12)CCC3 | 265 to 267 °C
O=C(O)C(Sc1ccc(F)cc1F)c1ccccc1 (centres undefined) | 109 to 111 °C
O=C(O)c1c(F)cc(OC(F)F)cc1F | 106 to 108 °C
ClCc1nc2ncc(Br)cc2[nH]1 | 209 to 211 °C
CC(=O)Nc1cccc2c1NCCC2 | 108 to 110 °C
Cc1c(C(N)=O)sc2nc[nH]c(=O)c12 | 283 to 285 °C
Nc1cc(C(F)(F)F)cc2c1OCC(=O)N2 | 199 to 201 °C
O=S(=O)(Nc1nc2ccccc2nc1Cl)c1ccccc1C(F)(F)F | 157 to 159 °C
Cn1c(Cl)cnc1CC#N | 142 to 144 °C
Cc1nn(C(C)(C)C)c(C)c1N | 54 to 56 °C
O=C1OC(O)C(Cl)=C1Cl (centres undefined) | 179 to 182 °C

SMILES | melting point
CCN(CC)S(=O)(=O)c1ccc(OC)c(C(=O)O)c1 | 119 to 121 °C
CCC1CCc2[nH]c(=O)sc2C1 (centres undefined) | 144 to 146 °C
O=C(O)C=CC1CCCCC1 | 54 to 56 °C
NS(=O)(=O)c1cc(Cl)c(Cl)c(C(=O)O)c1 | 237 to 239 °C
O=C(O)c1cnc2ccccc2c1SC1CCCC1 | 111 to 113 °C
O=C(O)/C=C/c1ccc(N2CCCS2(=O)=O)cc1 | 252 to 254 °C
CS(=O)(=O)NCc1ccccc1 | 49 to 51 °C
COC(=O)C(=O)CC(=O)c1ccc(Cl)cc1Cl | 118 to 120 °C
CS(=O)(=O)N1CCC(C(=O)O)CC1 | 159 to 161 °C
O=C(O)CCCNc1ccccc1[N+](=O)[O-] | 115 to 119 °C
NCC(O)c1ccco1 (centres undefined) | 80 to 82 °C
O=C(O)C1CCCN1Cc1ccc(F)cc1 (centres undefined) | 242 to 244 °C
COC(=O)c1cc(S(N)(=O)=O)c(F)cc1Br | 164 to 166 °C
O=C(O)CCCn1cc(Br)cn1 | 94 to 96 °C
CC(CC(=O)O)(CC(=O)O)c1ccccc1 | 136 to 138 °C
CCOC(=O)c1sc2nc(N3CCOCC3)[nH]c(=O)c2c1C | 296 to 298 °C
O=Cc1c(N2CCOCC2)nc2ccccn12 | 164 to 166 °C
COc1ccc(CNc2ccc3[nH]c(=O)[nH]c3c2)cc1 | 254 to 256 °C
O=C(O)/C=C/c1ccc(Cl)s1 | 198 to 200 °C
OC(c1cnn(-c2ccccc2)c1)C(F)(F)F (centres undefined) | 77 to 79 °C
CC1(C(=O)O)CCCN(C(=O)c2ccccc2)C1 (centres undefined) | 151 to 153 °C
Cn1cc(Br)c2cc[nH]c(=O)c21 | 195 to 197 °C
NNc1ccc(Cl)nc1 | 131 to 133 °C

SMILES | melting point
CC(Cl)C(=O)c1ccc(C(C)(C)C)cc1 (centres undefined) | 18 to 20 °C
COc1ccc(S(=O)(=O)NCCC(=O)O)cc1 | 125 to 127 °C
Nc1ccc(Br)cc1S(=O)(=O)N1CCOCC1 | 142 to 144 °C
CC(=O)c1cncc(F)c1 | 48 to 50 °C
COC(=O)c1cc(Cl)cc(Cl)c1N | 65 to 67 °C
O=C1CCCc2c1[nH]c1ccc(Br)cc21 | 189 to 191 °C
COC(=O)c1cc(F)cc(S(=O)(=O)Cl)c1Br | 73 to 75 °C
COCCN(C)S(N)(=O)=O | 34 to 36 °C
O=C(O)C1(O)Cc2ccccc2C1 | 176 to 178 °C
CC(C)(C)c1ccc(C2(C(=O)O)CCCCC2)cc1 | 160 to 162 °C
COC(=O)c1cncc(I)c1 | 79 to 81 °C
NC(=O)CCc1ccccc1 | 100 to 102 °C
CC(C)CNS(=O)(=O)c1ccc(C#N)cc1 | 99 to 101 °C
Cc1nc(C(C)(C)O)n[nH]1 | 185 to 187 °C
Clc1ccc(SC2CCNCC2)cc1 | 41 to 43 °C
CCOc1ccc(NC(=O)CC#N)cc1 | 95 to 100 °C
CC(Sc1ccc(Br)cc1)C(=O)O (centres undefined) | 113 to 115 °C
CC(O)c1ccc(NC(=O)c2ccncc2)cc1 (centres undefined) | 174 to 176 °C
O=Cc1cc(F)cc(F)c1 | 17 to 19 °C
O=C1CC2CCCC(C1)N2Cc1cccs1 | 88 to 90 °C
Nc1ccc(OCC(F)(F)F)c(C(F)(F)F)c1 | 48 to 50 °C
O=C(O)COc1cccc(N2CCCC2=O)c1 | 169 to 171 °C
O=C(O)c1c[nH]c2c(Br)ccc(Br)c2c1=O | 271 to 273 °C

SMILES | melting point
O=C(CCl)NC(Cc1ccccc1)c1ccccc1 (centres undefined) | 219 to 221 °C
Nc1ccc(C(=O)NCc2ccccc2)cc1 | 113 to 115 °C
Cc1cc(Cl)c(O)cc1OCC(=O)O | 131 to 133 °C
NNC(=S)Nc1cc(S(=O)(=O)N2CCOCC2)ccc1Cl | 181 to 183 °C
COCCCC(N)=S | 48 to 50 °C
CCOC(=O)/C(=C(\O)CCl)c1nc(C)cs1 | 76 to 78 °C
CC(C(=O)O)S(=O)(=O)Cc1ccc(Br)cc1 (centres undefined) | 135 to 137 °C
Nc1c(C(=O)O)ccnc1Cl | 249 to 251 °C
CCc1nc(N)[nH]c(=S)n1 | 239 to 241 °C
Cc1cc(C)c2c(N)c(C(=O)NN)sc2n1 | 245 to 247 °C
O=S(=O)(c1ccc(Cl)c(Cl)c1)N1CCNCC1 | 125 to 127 °C
O=C(O)Cc1ccc(N2CCCC2=O)cc1 | 120 to 122 °C
CC(C)Oc1ccc(S(N)(=O)=O)cc1 | 121 to 123 °C
Cc1c(C(=O)O)sc2ncn(C)c(=O)c12 | 215 to 217 °C
CC(C)(CCC(=O)O)NC(=O)OCC1c2ccccc2-c2ccccc21 | 119 to 121 °C
Cc1sc(N)c(C(=O)O)c1C | 120 to 122 °C
O=C(CCl)Nc1ccc(S(=O)(=O)N2CCOCC2)cc1 | 145 to 147 °C
NC(=O)C1CN(C(=O)CCl)c2ccccc2O1 (centres undefined) | 133 to 135 °C
O=C(O)c1ccnc(Cl)c1F | 194 to 196 °C
O=C(O)COc1ccccc1C(F)(F)F | 151 to 153 °C
NC(=O)C=Cc1cccnc1 | 149 to 151 °C
CCn1cnnc1S | 98 to 100 °C

Second part, the compound after the results:

melting point | SMILES
96 to 98 °C | Cc1cc(N)n(-c2ccncc2)n1
105 to 107 °C | Nc1ccc(Oc2ccc(Cl)nn2)cc1
131 to 133 °C | O=C(O)CSc1nnc(-c2ccc(F)cc2)n1CC1CCCO1 (centres undefined)
83 to 85 °C | Nc1cccc(S(=O)(=O)NCc2ccco2)c1
154 to 156 °C | CC(C)N(C)S(=O)(=O)c1ccc(Cl)c(C(=O)O)c1
59 to 61 °C | Fc1ccc(C2=NOC(CCl)C2)cc1 (centres undefined)
141 to 143 °C | Cc1ccc(Br)cc1NC(=O)CN
90 to 92 °C | CNC(=O)c1ccc(CN)cc1
111 to 113 °C | O=C(O)c1cccc(CO)c1
199 to 201 °C | COc1ccc(Cl)cc1/C=C/C(=O)O
109 to 111 °C | O=C(Nc1cccc2ccccc12)OCC(F)(F)F
135 to 137 °C | Cc1cc(N)ccc1-n1cnnn1
112 to 114 °C | Cc1nc(-c2ccncc2)nc(Cl)c1C
94 to 96 °C | O=S(=O)(Cl)c1ccccc1-c1ccccc1
145 to 147 °C | Cc1ccc(OCc2nc(CC(=O)O)cs2)cc1
29 to 31 °C | Clc1cccc2c1NCC2
153 to 155 °C | COc1ccccc1-n1nnnc1S
203 to 205 °C | CS(=O)(=O)c1ccc(Br)c(C(=O)O)c1
184 to 186 °C | Cc1ccc(CNC(N)=O)cc1
129 to 131 °C | O=C1C=CC(=O)N1c1cccc([N+](=O)[O-])c1
188 to 190 °C | Cc1cc2oc(=O)cc(CCl)c2cc1C
119 to 121 °C | O=C(O)c1noc(-c2ccccc2Cl)n1
145 to 147 °C | CCc1nc(C(=O)O)nn1-c1ccccc1
146 to 148 °C | OCc1ccc2[nH]nnc2c1
152 to 154 °C | CCOC(=O)c1ccc2c(c1)nc(S)n2CC
124 to 126 °C | O=C(O)C1CC1c1cccc(Cl)c1Cl (centres undefined)
160 to 162 °C | Nc1ccc2nc(CN3CCOCC3)[nH]c2c1

melting point | SMILES
215 to 217 °C | O=C(O)c1cc(-c2ccco2)nc2onc(C3CC3)c12
206 to 208 °C | CSc1ncc(C(=O)O)n1-c1ccccc1
144 to 146 °C | Cc1ccc(N)cc1S(=O)(=O)Nc1ccc(Cl)cc1
184 to 186 °C | Oc1ccc2[nH]ncc2c1
141 to 143 °C | Cc1cccc(-n2cc(C(=O)CCl)nn2)c1
115 to 117 °C | O=C(O)c1cc(S(=O)(=O)Cl)ccc1Br
144 to 146 °C | O=C(O)CCc1ncc(-c2ccc(F)cc2)o1
204 to 206 °C | Cc1ccc(S(C)(=O)=O)cc1C(=O)O
223 to 225 °C | CNc1ccnc2ccncc12
172 to 174 °C | O=C(O)c1cnn(-c2cccc(C(F)(F)F)c2)c1C1CC1
149 to 151 °C | Cc1ccc(C)c(N2N=C(C(=O)O)CCC2=O)c1
229 to 231 °C | Cc1oncc1C(=O)Nc1ccc(C(=O)O)cc1
77 to 79 °C | COc1cccc(C(=O)NN)c1OC
145 to 147 °C | COc1ccc([N+](=O)[O-])c2cccnc12
55 to 57 °C | Clc1nc(CSc2ccccc2)nc2sc3c(c12)CCCC3
145 to 147 °C | Cc1ccc(O)c(N)n1
225 to 227 °C | COc1ccc(-c2cc(C(=O)O)[nH]n2)cc1OC
44 to 46 °C | Cc1cccc(-c2nc(CCl)no2)c1
84 to 86 °C | O=C1CCc2c(Cl)cccc21
132 to 134 °C | Cc1nn(Cc2ccc(Cl)cc2)c(C)c1CO
64 to 66 °C | CCOC(=O)c1cc(C)nc2onc(C)c12
98 to 100 °C | CCOc1c(C#N)cnc2ccccc12
96 to 98 °C | CCc1ccccc1N(C(C)=O)c1nc(CN=C=S)cs1
< 17 °C | CC(O)c1cc2ccccc2o1 (centres undefined)
104 to 106 °C | COc1ccccc1-c1cc(N)n(-c2ccc(C)cc2)n1
231 to 233 °C | O=C(O)c1cccc(N2C(=O)C=CC2=O)c1
